Where a name gives a salt, the structure may show the parent alone.
Key:
[1] = tested on: male SD rats; test: Subcutaneous infiltration anesthesia in rats (acupuncture stimulation of back skin); assay type: in vivo, rat; conditions: for Duration of local anesthesia: 0.4 mL subcutaneous
Procedure: The compounds of the examples were dissolved in water for injection to a concentration of 0.2-0.5 g/100 mL (0.2-0.5%), or mixed with commercially-available clinically-common local anesthetic drugs to prepare a mixed solution with a specific proportion, and the 0.75% levobupivacaine was used as the positive control compound. The experimental method was as follows: male SD rats weighing 180-300 g were shaved off back hair 1 day before the experiment, and a circular skin area with a diameter of 4 cm was exposed. 0.4 mL of the drug solution was subcutaneously injected to the exposed circular center on the back using a 1 mL syringe to form a skin mound. After 1 minute, the first measurement was performed. Each of 8 random parts around the center of the injection site was stimulated once by acupuncture of 15 g force using a 26G needle (the stimulation site was no more than 1 cm away from the injection center). […] If there was no such behavior, it was considered that the local anesthetic effect existed. […] Except for the first measurement, the measurement was performed every 2 hours within 12 hours after the administration, and every 6 hours after 12 hours after the administration. 8 rats were used for each drug for the experiment.

[2] = tested on: rats; test: Mortality rate after injection of drugs through tail vein; assay type: in vivo, rat; conditions: 0.4 mL through tail vein, 10 rats
Procedure: 0.2% aqueous solution of the compounds of the present invention and 0.75% levobupivacaine solution were injected into the rats through tail vein in 0.4 mL, and the mortality rate was observed. Each drug was injected into 10 rats (half male and half female, weighing 290-310).

[3] = tested on: left sciatic nerve of rats; test: Sciatic nerve blocking experiment in rats (Von Frey filaments 60 g); assay type: in vivo, rat
Procedure: The compounds of the examples were dissolved in water for injection to a concentration of 0.5-2.0 g/100 mL (0.5%-2%), or mixed with commercially-available clinically-common local anesthetic drugs to prepare a mixed solution with a specific proportion, and the 0.75% levobupivacaine was used as the positive control compound. The experimental method was as follows: male SD rats weighing 180-300 g were anesthetized with isoflurane, 0.2 mL of the drug-containing solution was injected near the left sciatic nerve of rats, and 8 rats were used for each drug for the experiment. After the rats woke up, the first measurement was performed, and then the measurement was performed every 2 hours. If there was still an anesthetic effect after six measurements, the measurement was performed every 6 hours until the anesthetic effect disappeared. The method for judging the existence of anesthetic effect was as follows. The skin of the sole and lateral surface of the hindlimb of the rat on the side injected with the drug was stimulated using Von Frey filaments (60 g). […] If there was no such behavior, it was considered that the local anesthetic effect existed.

[4] = background, literature; cited from earlier work
[5] = 0.15 + 0.35% bupivacaine hydrochloride
[6] = 0.5%, 0.2 mL near left sciatic nerve
[7] = 0.5 + 0.35% bupivacaine hydrochloride, 0.2 mL near sciatic nerve
[8] = 1.0%, 0.2 mL near left sciatic nerve
[9] = 2.0%, 0.2 mL near left sciatic nerve
[10] = 0.15 + 0.35% lidocaine hydrochloride
[11] = 0.5 + 0.35% lidocaine hydrochloride, 0.2 mL near sciatic nerve
[12] = 0.15 + 0.15% tetracaine hydrochloride
[13] = 0.5 + 0.15% tetracaine hydrochloride, 0.2 mL near sciatic nerve
[14] = 0.75%, 0.2 mL near left sciatic nerve

## CC[N+](CC)(CC)CC(=O)Nc1c(C)cc(O)cc1C [Compound 1]
[1]; [5]
  Duration of local anesthesia: 24 to 30 h
[1]; 0.2%, rat back
  Duration of local anesthesia: 6 to 8 h
[1]; 0.5%, rat back
  Duration of local anesthesia: 10 to 12 h
[2]; 0.2% aqueous solution
  Mortality rate %: 0%
[3]; [6]
  Duration of local anesthesia: 4 to 10 h
[3]; [7]
  Duration of local anesthesia: 18 to 30 h
[3]; [8]
  Duration of local anesthesia: 12 to 18 h
[3]; [9]
  Duration of local anesthesia: 30 to 48 h

## CC[N+](CC)(CC)CC(=O)Nc1c(C)cc(OC(C)=O)cc1C [Compound 3]
[1]; [5]
  Duration of local anesthesia: 18 to 24 h
[1]; 0.2%, rat back
  Duration of local anesthesia: 8 to 14 h
[1]; 0.5%, rat back
  Duration of local anesthesia: 12 to 18 h
[2]; 0.2% aqueous solution
  Mortality rate %: 0%
[3]; [6]
  Duration of local anesthesia: 10 to 12 h
[3]; [7]
  Duration of local anesthesia: 24 to 36 h
[3]; [8]
  Duration of local anesthesia: 18 to 30 h
[3]; [9]
  Duration of local anesthesia: 54 to 96 h

## CC[N+](CC)(CC)CC(=O)Nc1c(C)cc(N)cc1C [Compound 7]
[1]; [5]
  Duration of local anesthesia: 4 to 6 h
[1]; 0.2%, rat back
  Duration of local anesthesia: 2 to 4 h
[1]; 0.5%, rat back
  Duration of local anesthesia: 2 to 4 h
[1]; injections of 0.2% and 0.5%, first measurement 1 minute after subcutaneous injection
  Local anesthetic effect at the first measurement: not effective
[3]; [6]
  Duration of local anesthesia: <2 h
[3]; [7]
  Duration of local anesthesia: 2 to 4 h
[3]; [8]
  Duration of local anesthesia: <2 h
[3]; [9]
  Duration of local anesthesia: 2 to 4 h

## CC[N+](CC)(CC)CC(=O)Nc1c(C)cc(OC(C)C)cc1C [Compound 15]
[1]; [5]
  Duration of local anesthesia: 36 to 42 h
[1]; 0.2%, rat back
  Duration of local anesthesia: 24 to 30 h
[1]; 0.5%, rat back
  Duration of local anesthesia: 42 to 54 h
[2]; 0.2% aqueous solution
  Mortality rate %: 0%
[3]; [6]
  Duration of local anesthesia: 12 to 18 h
[3]; [7]
  Duration of local anesthesia: 30 to 42 h
[3]; [8]
  Duration of local anesthesia: 24 to 36 h
[3]; [9]
  Duration of local anesthesia: 120 to 144 h

## CCCCCCOc1cc(C)c(NC(=O)C[N+](CC)(CC)CC)c(C)c1 [Compound 17]
[1]; [5]
  Duration of local anesthesia: 54 to 72 h
[1]; 0.2%, rat back
  Duration of local anesthesia: 36 to 48 h
[1]; 0.5%, rat back
  Duration of local anesthesia: 54 to 60 h
[2]; 0.2% aqueous solution
  Mortality rate %: 0%
[3]; [6]
  Duration of local anesthesia: 24 to 42 h
[3]; [7]
  Duration of local anesthesia: 48 to 66 h
[3]; [8]
  Duration of local anesthesia: 42 to 66 h
[3]; [9]
  Duration of local anesthesia: 96 to 144 h

## C=CC[N+]1(CC(=O)Nc2c(C)cc(OC(=O)CCC)cc2C)CCCCC1 [Compound 26]
[1]; 0.15 + 0.35% levobupivacaine hydrochloride
  Duration of local anesthesia: 42 to 54 h
[1]; 0.2%, rat back
  Duration of local anesthesia: 24 to 36 h
[1]; 0.5%, rat back
  Duration of local anesthesia: 54 to 66 h
[2]; 0.2% aqueous solution
  Mortality rate %: 0%
[3]; [6]
  Duration of local anesthesia: 24 to 30 h
[3]; 0.5 + 0.35% levobupivacaine hydrochloride, 0.2 mL near sciatic nerve
  Duration of local anesthesia: 36 to 48 h
[3]; [8]
  Duration of local anesthesia: 48 to 60 h
[3]; [9]
  Duration of local anesthesia: 96 to 160 h

## CCCCCOC(=O)Oc1cc(C)c(NC(=O)C[N+](CC)(CC)CC)c(C)c1 [Compound 27]
[1]; 0.15 + 0.5% lidocaine hydrochloride
  Duration of local anesthesia: 36 to 60 h
[1]; 0.2%, rat back
  Duration of local anesthesia: 18 to 30 h
[1]; 0.5%, rat back
  Duration of local anesthesia: 36 to 48 h
[2]; 0.2% aqueous solution
  Mortality rate %: 0%
[3]; [6]
  Duration of local anesthesia: 12 to 24 h
[3]; 0.5 + 0.5% lidocaine hydrochloride, 0.2 mL near sciatic nerve
  Duration of local anesthesia: 36 to 66 h
[3]; [8]
  Duration of local anesthesia: 30 to 42 h
[3]; [9]
  Duration of local anesthesia: 96 to 144 h

## CCCCCN(C)CC(=O)Oc1cc(C)c(NC(=O)C[N+](CC)(CC)CC)c(C)c1 [Compound 28]
[1]; [10]
  Duration of local anesthesia: 54 to 66 h
[1]; 0.2%, rat back
  Duration of local anesthesia: 36 to 48 h
[1]; 0.5%, rat back
  Duration of local anesthesia: 54 to 72 h
[2]; 0.2% aqueous solution
  Mortality rate %: 0%
[3]; [6]
  Duration of local anesthesia: 30 to 36 h
[3]; [11]
  Duration of local anesthesia: 48 to 54 h
[3]; [8]
  Duration of local anesthesia: 48 to 60 h
[3]; [9]
  Duration of local anesthesia: 120 to 144 h

## CC[N+](CC)(CCO)CC(=O)Nc1c(C)cc(OC(=O)CCCc2ccc(Cl)cc2)cc1C [Compound 31]
[1]; [10]
  Duration of local anesthesia: 36 to 42 h
[1]; 0.2%, rat back
  Duration of local anesthesia: 24 to 30 h
[1]; 0.5%, rat back
  Duration of local anesthesia: 36 to 54 h
[2]; 0.2% aqueous solution
  Mortality rate %: 0%
[3]; [6]
  Duration of local anesthesia: 12 to 18 h
[3]; [11]
  Duration of local anesthesia: 24 to 42 h
[3]; [8]
  Duration of local anesthesia: 24 to 30 h
[3]; [9]
  Duration of local anesthesia: 72 to 120 h

## CCCC(=O)Oc1cc(C)c(NC(=O)C2CCCC[N+]2(C)CCC)c(C)c1 (stereo not drawn) [Compound 33]
[1]; [12]
  Duration of local anesthesia: 66 to 84 h
[1]; 0.2%, rat back
  Duration of local anesthesia: 36 to 54 h
[1]; 0.5%, rat back
  Duration of local anesthesia: 60 to 72 h
[2]; 0.2% aqueous solution
  Mortality rate %: 0%
[3]; [6]
  Duration of local anesthesia: 24 to 30 h
[3]; [13]
  Duration of local anesthesia: 60 to 84 h
[3]; [8]
  Duration of local anesthesia: 48 to 66 h
[3]; [9]
  Duration of local anesthesia: 120 to 144 h

## CCN(CCCCCOc1cc(C)c(NC(=O)C[N+](CC)(CC)CC)c(C)c1)CC(=O)Nc1c(C)cccc1C [Compound 45]
[1]; [12]
  Duration of local anesthesia: 36 to 48 h
[1]; 0.2%, rat back
  Duration of local anesthesia: 24 to 36 h
[1]; 0.5%, rat back
  Duration of local anesthesia: 42 to 60 h
[2]; 0.2% aqueous solution
  Mortality rate %: 0%
[3]; [6]
  Duration of local anesthesia: 18 to 24 h
[3]; [13]
  Duration of local anesthesia: 36 to 42 h
[3]; [8]
  Duration of local anesthesia: 30 to 42 h
[3]; [9]
  Duration of local anesthesia: 96 to 120 h

## CC[N+](CC)(CC)CC(=O)Nc1c(C)cc(OC(=O)OCCCN2CCCCC2C(=O)Nc2c(C)cccc2C)cc1C (stereo not drawn) [Compound 48]
[1]; [12]
  Duration of local anesthesia: 66 to 72 h
[1]; 0.2%, rat back
  Duration of local anesthesia: 36 to 54 h
[1]; 0.5%, rat back
  Duration of local anesthesia: 60 to 78 h
[2]; 0.2% aqueous solution
  Mortality rate %: 0%
[3]; [6]
  Duration of local anesthesia: 24 to 36 h
[3]; [13]
  Duration of local anesthesia: 60 to 72 h
[3]; [8]
  Duration of local anesthesia: 54 to 72 h
[3]; [9]
  Duration of local anesthesia: 120 to 160 h

## CC[N+](CC)(CC)CC(=O)Nc1c(C)cc(OC(=O)CCCCCCCN2CCCCC2C(=O)Nc2c(C)cccc2C)cc1C (stereo not drawn) [Compound 50]
[1]; [12]
  Duration of local anesthesia: 42 to 54 h
[1]; 0.2%, rat back
  Duration of local anesthesia: 18 to 30 h
[1]; 0.5%, rat back
  Duration of local anesthesia: 24 to 48 h
[2]; 0.2% aqueous solution
  Mortality rate %: 0%
[3]; [6]
  Duration of local anesthesia: 24 to 30 h
[3]; [13]
  Duration of local anesthesia: 36 to 60 h
[3]; [8]
  Duration of local anesthesia: 36 to 48 h
[3]; [9]
  Duration of local anesthesia: 96 to 120 h

## CC[N+](CC)(CCO)CC(=O)Nc1c(C)cc(OCCCCN2CCCCC2C(=O)Nc2c(C)cccc2C)cc1C (stereo not drawn) [Compound 53]
[1]; [12]
  Duration of local anesthesia: 36 to 48 h
[1]; 0.2%, rat back
  Duration of local anesthesia: 24 to 30 h
[1]; 0.5%, rat back
  Duration of local anesthesia: 48 to 54 h
[2]; 0.2% aqueous solution
  Mortality rate %: 0%
[3]; [6]
  Duration of local anesthesia: 30 to 36 h
[3]; [13]
  Duration of local anesthesia: 42 to 66 h
[3]; [8]
  Duration of local anesthesia: 42 to 54 h
[3]; [9]
  Duration of local anesthesia: 72 to 84 h

## CCCCN1CCCC[C@H]1C(=O)Nc1c(C)cccc1C [Levobupivacaine hydrochloride, reference compound]
[1]; 0.75%, rat back, hydrochloride
  Duration of local anesthesia: 4 to 6 h
[1]; 0.75%, rat back, listed as levobupivacaine, hydrochloride
  Duration of local anesthesia: 4 to 6 h
[2]; 0.75% solution, hydrochloride
  Mortality rate %: 70%
[2]; 0.75% solution, listed as levobupivaca, hydrochloride
  Mortality rate %: death of most animals
[2]; 0.75% solution, listed as levobupivacaine, hydrochloride
  Mortality rate %: 70%
[3]; [14]
  Duration of local anesthesia: 2 to 6 h
[3]; 0.75%, compared with sensory block
  Duration of motor block: basically the same as that of the sensory block
[3]; 0.75%, side injected with the drug
  Block of motor function of the hindlimb: significantly blocked the motor function

## CCCCN1CCCCC1C(=O)Nc1c(C)cccc1C (stereo not drawn) [bupivacaine, reference compound]
[1]; 0.75%, rat back
  Duration of local anesthesia: 4 to 6 h
[3]; [14]
  Duration of local anesthesia: 2 to 6 h

## CCN(CC)CC(=O)Nc1c(C)cccc1C [lidocaine]
[4]
  Duration of local anesthesia: 2 h

— patent US20230183169A1, “AROMATIC COMPOUND, PREPARATION METHOD THEREFOR AND USE THEREOF IN DRUG” (SICHUAN ACADEMY OF MEDICAL SCIENCES - SICHUAN PROVINCIAL …, priority 2020, published 2023)
